# Values of other authors in patent publication US20220347157A1, “SUSTAINED RELEASE PHARMACEUTICAL COMPOSITIONS COMPRISING (1R, 5S)-1-(NAPHTHALEN-2-YL)-3-AZABICYCLO[3.1.0]HEXANE” (OTSUKA AMERICA PHARMACEUTICAL, INC., priority 2013, published 2022).
# Columns and labels:
# [1] = target: dopamine reuptake (DA) (Homo sapiens, UniProt Q01959); details: fraction of the potency towards norepinephrine reuptake
# [2] = target: serotonin reuptake (5-HT) (Homo sapiens, UniProt P31645); details: fraction of the potency towards norepinephrine reuptake
# Sequence of serotonin reuptake (5-HT) (P31645 whole entry): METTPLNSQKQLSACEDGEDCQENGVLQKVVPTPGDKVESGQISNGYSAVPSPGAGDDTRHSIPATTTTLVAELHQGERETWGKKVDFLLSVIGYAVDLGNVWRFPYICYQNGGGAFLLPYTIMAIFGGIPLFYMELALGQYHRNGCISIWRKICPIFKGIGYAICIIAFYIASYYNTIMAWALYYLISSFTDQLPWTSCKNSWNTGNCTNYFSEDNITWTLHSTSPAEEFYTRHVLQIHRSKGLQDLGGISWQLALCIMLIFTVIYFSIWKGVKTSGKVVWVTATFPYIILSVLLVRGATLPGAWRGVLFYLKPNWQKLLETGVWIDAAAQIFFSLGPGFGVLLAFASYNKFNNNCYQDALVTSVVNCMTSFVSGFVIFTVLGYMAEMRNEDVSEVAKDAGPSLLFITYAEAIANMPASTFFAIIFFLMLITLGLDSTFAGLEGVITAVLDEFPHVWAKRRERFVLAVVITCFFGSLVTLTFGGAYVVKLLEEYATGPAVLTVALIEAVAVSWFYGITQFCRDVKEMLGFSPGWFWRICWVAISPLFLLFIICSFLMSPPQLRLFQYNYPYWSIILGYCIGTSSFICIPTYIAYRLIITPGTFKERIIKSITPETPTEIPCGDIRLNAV
# Sequence of dopamine reuptake (DA) (Q01959 whole entry): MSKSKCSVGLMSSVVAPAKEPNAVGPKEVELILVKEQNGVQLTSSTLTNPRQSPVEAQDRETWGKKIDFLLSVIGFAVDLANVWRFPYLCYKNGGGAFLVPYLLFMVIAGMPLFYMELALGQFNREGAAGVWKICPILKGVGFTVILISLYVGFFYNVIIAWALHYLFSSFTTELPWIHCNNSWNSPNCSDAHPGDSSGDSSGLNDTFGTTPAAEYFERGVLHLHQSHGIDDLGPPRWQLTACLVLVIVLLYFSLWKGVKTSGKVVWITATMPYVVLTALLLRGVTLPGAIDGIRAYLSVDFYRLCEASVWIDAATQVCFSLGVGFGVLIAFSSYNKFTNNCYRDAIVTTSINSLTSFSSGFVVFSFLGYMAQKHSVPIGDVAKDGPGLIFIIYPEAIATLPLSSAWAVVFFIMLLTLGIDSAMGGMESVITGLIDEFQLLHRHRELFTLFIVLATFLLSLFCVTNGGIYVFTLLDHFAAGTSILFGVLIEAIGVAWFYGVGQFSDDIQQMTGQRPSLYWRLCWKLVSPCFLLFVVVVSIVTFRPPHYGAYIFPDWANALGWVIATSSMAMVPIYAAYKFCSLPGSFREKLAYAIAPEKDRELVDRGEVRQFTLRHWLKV
structure (smiles),measurement,setting,value
"c1ccc2cc([C@]34CNC[C@H]3C4)ccc2c1 [(1R,5S)-1-(naphthalen-2-yl)-3-azabicyclo[3.1.0]hexane]",potency towards dopamine reuptake (DA) relative to norepinephrine reuptake (NE),[1],one-sixth as much
same,potency towards serotonin reuptake (5-HT) relative to norepinephrine reuptake (NE),[2],one-fourteenth as much
